Measured values from paper PMC12030062, “From In Vitro Cytotoxicity to In Vivo Zebrafish Assays: A Study on 3,3-Dichloro β-, γ- and δ-Lactams and Their Biological Activity Profiles” (Pharmaceuticals, 2025).
Converted amounts (≈) assume the structure as drawn.

What was measured:
[1] = test system: A431 cell line (squamous cell carcinoma); experiment: Cell viability, NRU assay, A431; assay type: cell-based, human
Protocol: (§1) Two different endpoints, 3-(4,5-dimethyl-2-thiazolyl)-2,5-diphenyltetrazolium bromide (MTT) and neutral red uptake (NRU), were used to assess differences in cell-induced cytotoxicity. […] In addition, NRU evaluates the interaction of these drugs with the plasmatic membrane. Cell responses were determined from the MTT [16] and NRU [17] assays, using the two proposed cell lines. Cytotoxicity assays were performed at concentrations equal to 80 and 250 µg/mL. The IC50 value, referring to the half-maximal inhibitory concentration, was determined as a key parameter in cytotoxicity studies (Table 1). It plays a crucial role in evaluating cell viability and assessing cellular responses to various drugs or toxins. For cases where IC50 values were below 80 µg/mL, additional studies at lower concentrations were conducted to accurately determine these values. […] The selectivity index (SI), used as a measurement of action against the tumor cell line in comparison with a normal cell line, was also included.
(§2) • In Vitro Assay Using Human Erythrocytes • - Acquisition and Extraction of the Erythrocytes Human blood samples were obtained from the Banc de Sang i Teixits de Barcelona (Spain) from the Catalan Department of Health. Blood was deposited in tubes with the anticoagulant EDTA-K3. Blood samples were centrifuged at 3000 rpm and 4 °C for 10 min (Megafuge 2.0 R. Heraeus Instruments, Hanau, Germany) to induce sedimentation. Plasma was extracted with a Pasteur pipette. Next, the residual pellet was washed with PBS at pH 7.4. This procedure was repeated three times to remove residual leukocytes and platelets and to concentrate the erythrocytes. Following the last wash, the erythrocyte suspension was diluted (1:1) in PBS at pH 7.4 to obtain a suitable erythrocyte suspension (cell density of 8 × 10^9 cell/mL). • - Hemolysis Assay The hemolysis assay determined the capability of different compounds to induce the hemolysis of the erythrocyte membrane. Stock solutions of each compound at 1 mg/mL in PBS at pH 7.4 were prepared. Different volumes (10–80 μL) were placed in polystyrene tubes, and an aliquot of 25 µL of the erythrocyte suspensions was added to each tube. The final volume was 1 mL. The tubes were incubated at room temperature under rotatory conditions. Then, the tubes were centrifuged at 10,000 rpm for 5 min. The supernatants’ absorbance at 540 nm (Shimadzu UV-160A, Shimadzu, Duisburg, Germany) was compared with that of the positive (erythrocytes hemolyzed with distilled water) and negative (erythrocyte suspension in PBS at pH 7.4) controls. The degree of hemolysis was determined using the following equation: Hemolysis (%) = 100 × (Abs − Abs0)/(Abs100 − Abs0) where Abs, Abs0, and Abs100 are the absorbance of the test samples, of the suspension treated with isotonic phosphate–buffered saline (PBS), and of the suspension of complete hemolysis treated with distilled water, respectively. • In Vitro Essay Using Cell Cultures The murine Swiss albino fibroblasts (3T3) and the squamous cell carcinoma (A431) cell lines were obtained from Celltec UB. Cells were grown in DMEM medium (4.5 g/L glucose) supplemented with 10% (v/v) FBS, 2 mM L-glutamine, 100 U/mL penicillin, and 100 µg/mL streptomycin at 37 °C with 5% CO2. Cells were routinely cultured in 75 cm^2 culture flasks and were trypsinized using trypsin–EDTA when the cells reached approximately 80% confluence. The trypan blue assay, which allows for the direct identification and enumeration of the live (unstained) and dead (blue) cells in the cell population, was used to evaluate the viability of the cells in the cell suspension obtained. • - Cell Viability Assays Cell lines of 3T3 (1 × 10^5 cells/mL) and A431 (5 × 10^4 cells/mL) were grown at defined densities in the 60 central wells of a 96-well plate. The cells were incubated for 24 h in 5% CO2 at 37 °C. […]

[2] = test system: murine Swiss albino fibroblast (3T3) cell line; experiment: Cell viability, MTT assay, 3T3; assay type: cell-based; details: 24 h incubation, MTT endpoint
Protocol: as §1, §2

CC(C)(C)N1C(=O)C(Cl)(Cl)C1c1ccccc1 (centres unmarked) [Compound 1]
IC50 (NRU) A431 ([1]; 24 h incubation, NRU endpoint, A431): 35.74 ± 3.24 µg/mL (≈ 131 µM) | IC50 ([1]; Homo sapiens, A-431, 24 h, 24 h incubation, NRU endpoint, A431): 35 µg/mL (≈ 129 µM) | SI (NRU), selectivity index ([1]; SI = IC50 (3T3)/IC50 (A431), NRU): >>6.99 | IC50 (MTT) 3T3 [2]: 210.42 ± 2.40 µg/mL (≈ 773 µM) | IC50 ([2]; Mus musculus, 24 h): 210 µg/mL (≈ 772 µM)
